The structures appear in SMILES notation.

One data set concerns pea aphid. The data set can be described thus: Systemic insecticidal activity (soil/water), pea aphid. It counts as in vivo, Acyrthosiphon pisum (Harris). Conditions: Acyrthosiphon pisum, 48-hour exposure, read-out: % Kill, Pea Aphid. As to the method: (§1) c. Systemic Insecticidal Acitivity (Soil/Water)
(§2) In this test, a candidate insecticide, in solution, is added to the soil of either uninfested pinto bean seedlings (Phaseolus vulgaris) or uninfested broad bean seedlings (Vicia faba var. Windsor). The plant species used depend on the insect species in the test. Usually, a 72-hour translocation period before infestation is required, followed by a 48-hour exposure period, before evaluation of the tests. The insect species used in the systemic tests are Mexican bean beetle, southern armyworm, pea aphid, and twospotted spider mite.

The test system of the next data set is Mexican bean beetle. Description: Systemic insecticidal activity (soil/water), Mexican bean beetle. It counts as in vivo, Epilachna varivestis Mulsant. Conditions: Epilachna varivestis, 48-hour exposure, read-out: % Kill, Mexican Bean Beetle. As to the method:
as §1, §2

Data set [1] in a line: Mammalian toxicity, 14-day LD50 in rats. Conditions: rat, in vivo, Wistar derived albino rats, method of Miller and Tainter. From the text:
The compounds of this invention are characterized by advantageous mammalian toxicity values when compared with values for related compounds. This is shown by comparative values obtained with Wistar derived albino rats in 14-day tests. The animals were fed, housed and watered in accordance with standard laboratory procedures. The 14-day LD50 determination was estimated in accord with the method of Miller and Tainter (Experimental Biology and Medicine, 57, pp. 261-264, 1944).

In data set [2] the test system is granary weevil. Description: Initial insecticidal activity, granary weevil. As to conditions: Sitophilus granarius, 48-hour exposure, read-out: % Kill, Granary Weevil. It counts as in vivo, Sitophilus granarius (Linnaeus). From the text: a. Initial Insecticidal Activity
In this test, a candidate insecticide, in solution, is applied to either infested or uninfested plants or containers by spraying or dipping. (The preferred test procedure varies with insect species. The dipping method is better than the spraying method, and vice versa, for certain species of insects. Also some species are better adapted to the test by infesting after the chemical treatment rather than before.) Once the tests have been established, a 48-hour exposure period is observed before reading the tests. Insect species included in these tests are Mexican bean beetle (Epilachna varivestis Mulsant), pea aphid [Acyrthosiphon pisum (Harris)], southern armyworm [Spodoptera eridania (Cramer)], twospotted spider mite (Tetranychus urticae Koch), large milkweed bug [Oncopeltus fasciatus (Dallas)], plum curculio [Conotrachelus nenuphar (Herbst)], confused flour beetle (Tribolium confusum Jacquelin duVal) and granary weevil [Sitophilus granarius (Linnaeus)]. Test results are set forth in Table I. A control sample, comprising the solution without the candidate insecticide, is also included.

The test system of data set [3] is twospotted spider mite. The data set can be described thus: Seven-day residual insecticidal activity, twospotted spider mite. It counts as in vivo, Tetranychus urticae Koch. Conditions: Tetranychus urticae, 48-hour exposure, read-out: % Kill, Twospotted Spider Mite. An excerpt: (§3) b. Seven-Day Residual Insecticidal Activity
(§4) In this test, a candidate insecticide, in solution, is applied to uninfested plants or containers by dipping or spraying. A seven-day holding period is necessary before infestation. A 48-hour exposure period is observed before evaluation of the tests. The insect species used in this type of test are the same as those listed under initial activity.

Another data set has as its system plum curculio. The data set can be described thus: Seven-day residual insecticidal activity, plum curculio. It counts as in vivo, Conotrachelus nenuphar (Herbst). As to conditions: Conotrachelus nenuphar, 48-hour exposure, read-out: % Kill, Plum Curculio.
Description: as §3, §4

In data set [4] the test system is twospotted spider mite. The data set can be described thus: Systemic insecticidal activity (soil/water), twospotted spider mite. The data set is classed as in vivo, Tetranychus urticae Koch. As to conditions: Tetranychus urticae, 48-hour exposure, read-out: % Kill, Twospotted Spider Mite. As for the experimental part:
as §1, §2

Data set [5] concerns granary weevil. Description: Seven-day residual insecticidal activity, granary weevil. As to conditions: Sitophilus granarius, 48-hour exposure, read-out: % Kill, Granary Weevil. The data set is classed as in vivo, Sitophilus granarius (Linnaeus).
Description: as §3, §4

In data set [6] the test system is twospotted spider mite. The data set can be described thus: Ovicidal activity against the twospotted spider mite. The data set is classed as in vivo, Tetranychus urticae Koch. As to conditions: Tetranychus urticae, eggs, 7 to 10 days, read-out: % Kill (ovicidal). As to the method:
d. Ovicidal Activity Against the Twospotted Spider Mite
In this test, Pinto bean seedlings are infested with female twospotted spider mites; about 3-4 hours are allowed for egg deposition. Plants are then dipped in TEPP (tetraethylpyrophosphate-commercial emulsifiable concentrate (EC)) solution containing 936 ppm of active ingredient. TEPP kills motile forms on the leaf and promptly degrades without effecting the egg stage. Two to three hours after TEPP treatment the plants are again dipped -- this time into a candidate insecticide solution. The test plants are maintained for 7 to 10 days. Termination of exposure is determined by the time required to attain complete hatch in the untreated check.

For a further data set, the system named is southern armyworm. Description: Systemic insecticidal activity (soil/water), southern armyworm. The data set is classed as in vivo, Spodoptera eridania (Cramer). Conditions: Spodoptera eridania, 48-hour exposure, read-out: % Kill, Southern Armyworm. As to the method: as §1, §2

One may read the LD50 as the dose at which mortality reaches 50%. Read a high LD50 as lower toxicity. For the molecule `CCOP(=O)(OCC)N(C)SN(C)C(=O)Oc1cccc2c1OC(C)(C)C2` [Example 1(c), 2,3-dihydro-2,2-dimethyl-7-benzofuranyl [(N-diethoxyphosphinyl) (N-methyl)-aminosulfenyl][methyl]carbamate], the mortality at 39 ppm with pea aphid (39 ppm) came out at 100%; in the data set with Mexican bean beetle (39 ppm), 100%; with granary weevil [2] (39 ppm), 30%; in the data set on twospotted spider mite [3] (39 ppm), 2%; in the data set with plum curculio (39 ppm), 0%; with twospotted spider mite [4] (39 ppm), 2%. Besides, the values for the mortality at 39 ppm in the data set on granary weevil [5] (39 ppm), in the data set with twospotted spider mite [6] (39 ppm) and in the data set on southern armyworm (39 ppm) were 8%, 0% and 0%, respectively. Besides, the mortality at 156 ppm with pea aphid (156 ppm) was 100%; in the data set with Mexican bean beetle (156 ppm), 95%; with granary weevil [2] (156 ppm), 100%; in the data set with twospotted spider mite [3] (156 ppm) it was 1%; in the data set with plum curculio (156 ppm) it was 22%; with twospotted spider mite [4] (156 ppm), 8%. In addition, the mortality at 156 ppm turned out to be 97% in the data set on granary weevil [5] (156 ppm), 0% in the data set with twospotted spider mite [6] (156 ppm) and 92% in the data set on southern armyworm (156 ppm). In data set [1], this molecule gave an LD50 at 336 h of 146 mg/kg. Besides, the mortality at 1250 ppm with granary weevil [2] (1250 ppm) came to 100%; in the data set on twospotted spider mite [3] (1250 ppm) it was 9%; in the data set with plum curculio (1250 ppm) it was 85%; in the data set with granary weevil [5] (1250 ppm), 100%; with twospotted spider mite [6] (1250 ppm) it was 72%.

The values are drawn from patent US4024277A, “Phosphoro-aminosulfenyl derivatives of benzofuran carbamates” (priority 1975, dated 1977).
